Reference: patent publication US9290476B2, “Methylene linked quinolinyl modulators of RORγt” (Janssen Pharmaceutica NV, priority 2012, dated 2016)
Where a name gives a salt, the structure may show the parent alone. Read-outs that look alike come from different tables or passages of the source.

What was measured:
[1] = test system: IL-17 production by CD4 T cells; assay: Human Th17 assay (IL-17 production by CD4 T cells under Th17 differentiation); format: cell-based; details: human CD4+ T cells, IL-17 after 3 days, read-out: Human Th17 Assay, IC50 μM
In short: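 Healthy-donor peripheral CD4+ T cells (1.5×10^5/well) preincubated 1 h with titrated compound (0.2% DMSO), then differentiated with anti-CD3/CD28 beads, anti-IL4, anti-IFNγ, IL1β, IL23, IL6, TGFβ and IL2 for 3 days at 37 °C. Supernatant IL-17 quantified by MSD electrochemiluminescence against a standard curve; IC50 fitted.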

[2] = target: human RORγt ligand binding domain (RORγt LBD) (Homo sapiens (Human), UniProt P51449); assay: RORγt ThermoFluor assay (thermal shift binding affinity); details: estimated from thermal shift
In short: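 Thermal shift used 0.065 mg/mL RORγt LBD with 60 μM 1,8-ANS in 100 mM Hepes pH 7.0, 10 mM NaCl, 2.5 mM GSH and 0.002% Tween-20, heated at 1 °C/min. Fluorescence was excited at 380–400 nm and emission read at 500 nm.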

[3] = target: human RORγt LBD (Homo sapiens (Human), UniProt P51449); assay: RORγt reporter assay (GAL4-RORγt LBD luciferase in HEK293T cells); format: cell-based; details: for IC50 / RORγt reporter Assay, % inhibition @ 6 μM: HEK293T cells; for IC50: 24 hours compound treatment; for inhibition at 6 µM: HEK-293T, read-out: RORγt reporter Assay, % inhibition @ 6 μM, HEK293T cells, 6 μM
In short: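 HEK293T cells transiently co-transfected with GAL4-DBD–wild-type human RORγt LBD (pBIND) and GAL4-responsive firefly luciferase reporter (pGL4.31); renilla luciferase from pBIND normalises transfection/viability. Cells in phenol-red-free DMEM, 5% lipid-reduced FCS, treated with compound 24 h. Firefly/renilla ratio plotted against compound concentration.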

human RORγt ligand binding domain (RORγt LBD), sequence (P51449 other isoform, or with tags, fused parts or gaps): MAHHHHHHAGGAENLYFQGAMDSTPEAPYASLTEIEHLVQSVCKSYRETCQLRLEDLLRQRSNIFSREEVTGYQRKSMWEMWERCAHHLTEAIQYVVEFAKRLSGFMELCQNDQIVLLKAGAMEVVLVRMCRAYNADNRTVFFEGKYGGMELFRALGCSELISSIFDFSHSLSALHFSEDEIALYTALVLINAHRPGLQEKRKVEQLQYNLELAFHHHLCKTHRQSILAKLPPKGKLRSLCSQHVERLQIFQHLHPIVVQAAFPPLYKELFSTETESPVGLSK
human RORγt LBD, sequence (P51449 258-518): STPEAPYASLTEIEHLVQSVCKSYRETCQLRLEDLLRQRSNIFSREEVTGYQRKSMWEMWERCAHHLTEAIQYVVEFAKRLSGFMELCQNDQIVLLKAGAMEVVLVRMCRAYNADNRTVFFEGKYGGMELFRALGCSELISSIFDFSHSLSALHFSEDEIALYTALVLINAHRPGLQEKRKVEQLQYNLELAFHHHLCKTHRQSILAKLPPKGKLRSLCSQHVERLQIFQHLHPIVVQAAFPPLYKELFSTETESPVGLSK

| SMILES | IC50 [1] [µM] | Kd [2] [nM] | IC50 [3] [µM] | inhibition at 6 µM [3] [%] | IC50 ([1]; Homo sapiens, CD4+ T, 72 h) [µM] | RORγt reporter Assay, % inhibition @ 6 μM [3] [%] |
| --- | --- | --- | --- | --- | --- | --- |
| COc1nc2ccc(C(O)(c3ccc(C(F)(F)F)nc3)c3cncn3C)cc2c(Cl)c1Cc1ccc(C(F)(F)F)nc1 (single isomer, unassigned) [Example 94B, (4-Chloro-2-methoxy-3-((6-(trifluoromethyl)pyridin-3-yl)methyl)quinolin-6-yl)(1-methyl-1H-imidazol-5-yl)(6-(trifluoromethyl)pyridin-3-yl)methanol] | 1.9 | 98 | 0.21 | 96 |  |  |
| COc1nc2ccc(C(O)(c3ccc(C#N)cc3)c3cncn3C)cc2c(C#N)c1Cc1ccc(-n2cccn2)cc1 (single isomer, unassigned) [Example 76C, 3-(4-(1H-Pyrazol-1-yl)benzyl)-6-((4-cyanophenyl)(hydroxy)(1-methyl-1H-imidazol-5-yl)methyl)-2-methoxyquinoline-4-carbonitrile] |  | 15 | 0.045 |  | 0.033 | 101 |
| Cc1cc(C(O)(c2ccc(C(F)(F)F)nc2)c2cncn2C)cc2c(C#N)c(Cc3ccc(-n4cccn4)cc3)c(C#N)nc12 (single isomer, unassigned) [Example 65B, 3-(4-(1H-pyrazol-1-yl)benzyl)-6-(hydroxy(1-methyl-1H-imidazol-5-yl)(6-(trifluoromethyl)pyridin-3-yl)methyl)-8-methylquinoline-2,4-dicarbonitrile] | 0.22 | 140 | 0.13 | 101 |  |  |
| Cc1cc(C(O)(c2ccc(C(F)(F)F)nc2)c2cncn2C)cc2c(C#N)c(Cc3ccc(-n4cccn4)cc3)c(C#N)nc12 (single isomer, unassigned) [Example 65C, 3-(4-(1H-pyrazol-1-yl)benzyl)-6-(hydroxy(1-methyl-1H-imidazol-5-yl)(6-(trifluoromethyl)pyridin-3-yl)methyl)-8-methylquinoline-2,4-dicarbonitrile] | 0.045 | 4.2 | 0.046 |  |  | 100 |
| CCN(CC)c1nc2ccc(C(O)(c3ccc(Cl)cc3)c3cncn3C)cc2c(Cl)c1Cc1ccc(-n2cccn2)cc1 (single isomer, unassigned) [Example 75C, (3-(4-(1H-Pyrazol-1-yl)benzyl)-4-chloro-2-(diethylamino)quinolin-6-yl)(4-chlorophenyl)(1-methyl-1H-imidazol-5-yl)methanol] |  | 150 | 0.18 |  | 0.14 | 90 |
| COc1nc2ccc(C(O)(c3sc(C)nc3C)c3cnnn3C)cc2c(Cl)c1Cc1ccc(C(F)(F)F)cc1 (centres unmarked) [Example 79C, (4-Chloro-2-methoxy-3-(4-(trifluoromethyl)benzyl)quinolin-6-yl)(2,4-dimethylthiazol-5-yl)(1-methyl-1H-1,2,3-triazol-5-yl)methanol] |  | 0.024 | 0.0025 | 94 | 0.0015 |  |
| COc1nc2ccc(C(O)(c3ccc(C(F)(F)F)nc3)c3cncn3C)cc2c(C#N)c1Cc1ccc(-n2cccn2)cc1 (single isomer, unassigned) [Example 73C, 3-(4-(1H-Pyrazol-1-yl)benzyl)-6-(hydroxy(1-methyl-1H-imidazol-5-yl)(6-(trifluoromethyl)pyridin-3-yl)methyl)-2-methoxyquinoline-4-carbonitrile] | 0.13 | 34 | 0.31 |  |  | 99 |
| Cn1cncc1C(O)(c1ccc(Cl)cc1)c1ccc2nc(Cl)c(Cc3ccc(-n4cccn4)cc3)c(Cl)c2c1 (centres unmarked) [Example 11, (3-(4-(1H-Pyrazol-1-yl)benzyl)-2,4-dichloroquinolin-6-yl)(4-chlorophenyl)(1-methyl-1H-imidazol-5-yl)methanol.TFA] |  | 75 | 0.16 | 104 | 0.3 |  |
| Cn1cncc1C(O)(c1ccc(Cl)cc1)c1ccc2nc(Cl)c(Cc3ccccc3)c(Cl)c2c1 (centres unmarked) [Example 1, (3-Benzyl-2,4-dichloroquinolin-6-yl)(4-chlorophenyl)(1-methyl-1H-imidazol-5-yl)methanol] |  | 18 | 0.35 | 72 | 0.59 |  |
| OC(c1cccnc1)(c1cccc(Cl)c1)c1ccc2nc(Cl)c(Cc3ccc(-n4cccn4)cc3)c(Cl)c2c1 (centres unmarked) [Example 5, (3-(4-(1H-Pyrazol-1-yl)benzyl)-2,4-dichloroquinolin-6-yl)(3-chlorophenyl)(pyridin-3-yl)methanol.TFA] |  | 11 | 0.057 | 117 | 0.066 |  |
| COc1ccc(C(O)(c2ccc3nc(OC)c(Cc4ccc(-n5cccn5)cc4)c(Cl)c3c2)c2cncs2)cn1 (single isomer, unassigned) [Example 20C, (3-(4-(1H-pyrazol-1-yl)benzyl)-4-chloro-2-methoxyquinolin-6-yl)(6-methoxypyridin-3-yl)(thiazol-5-yl)methanol] | 0.069 | 5.3 | 0.06 |  |  | 102 |
| CCN(CC)c1nc2ccc(C(O)(c3ccc(C(F)(F)F)nc3)c3cncn3C)cc2c(C#N)c1Cc1ccc(-n2cccn2)cc1 (single isomer, unassigned) [Example 74B, 3-(4-(1H-Pyrazol-1-yl)benzyl)-2-(diethylamino)-6-(hydroxy(1-methyl-1H-imidazol-5-yl)(6-(trifluoromethyl)pyridin-3-yl)methyl)quinoline-4-carbonitrile] |  | 1300 | 0.17 | 95 | 0.091 |  |
| CON(C)c1nc2ccc(C(O)(c3ccc(C(F)(F)F)nc3)c3cncn3C)cc2c(Cl)c1Cc1ccc(-n2cccn2)cc1 (single isomer, unassigned) [Example 67C, (3-(4-(1H-pyrazol-1-yl)benzyl)-4-chloro-2-(methoxy(methyl)amino)quinolin-6-yl)(1-methyl-1H-imidazol-5-yl)(6-(trifluoromethyl)pyridin-3-yl)methanol] | 0.1 | 57 | 0.12 |  |  | 101 |
| CCOc1nc2ccc(C(O)(c3cncs3)c3cncn3C)cc2c(Cl)c1Cc1ccc(-n2cccn2)cc1 (centres unmarked) [Example 16, (3-(4-(1H-Pyrazol-1-yl)benzyl)-4-chloro-2-ethoxyquinolin-6-yl)(1-methyl-1H-imidazol-5-yl)(thiazol-5-yl)methanol.TFA] |  | 6.6 | 0.038 | 104 | 0.054 |  |
| COc1nc2ccc(C(O)(c3cnnn3C)C3CN(C(C)=O)C3)cc2c(Cl)c1Cc1ccc(C(F)(F)F)cc1 (racemic) [Example 97A, 1-(3-((4-Chloro-2-methoxy-3-(4-(trifluoromethyl)benzyl)quinolin-6-yl)(hydroxy)(1-methyl-1H-1,2,3-triazol-5-yl)methyl)azetidin-1-yl)ethanone] |  | 1.4 | 0.0042 | 100 | 0.0014 |  |
| COc1nc2ccc(C(O)(c3sc(C)nc3C)c3cnnn3C)cc2c(Cl)c1Cc1ccc(C(F)(F)F)cc1 (single isomer, unassigned) [Example 79B, (4-Chloro-2-methoxy-3-(4-(trifluoromethyl)benzyl)quinolin-6-yl)(2,4-dimethylthiazol-5-yl)(1-methyl-1H-1,2,3-triazol-5-yl)methanol] |  | 57 | 0.038 | 99 | 0.052 |  |
| COc1ccc(C(O)(c2ccc3nc(OC)c(Cc4ccc(-n5cccn5)cc4)c(Cl)c3c2)c2cncs2)cn1 (centres unmarked) [Example 20A, (3-(4-(1H-Pyrazol-1-yl)benzyl)-4-chloro-2-methoxyquinolin-6-yl)(6-methoxypyridin-3-yl)(thiazol-5-yl)methanol] |  | 3.8 | 0.026 | 101 | 0.015 |  |
